Patent US20230002375A1, “HYDROPYRAZINO[1,2-B]ISOQUINOLINE COMPOUNDS FOR THE TREATMENT OF AUTOIMMUNE DISEASE” (Hoffmann-La Roche Inc., priority 2019, published 2023)

Legend:
human TLR7 = target: T1, human TLR7 (Homo sapiens, UniProt Q9NYK1); experiment: HEK293-Blue-hTLR-7 cells assay (SEAP reporter, R848 stimulation); type: cell-based; conditions: HEK293-Blue-hTLR7 cells, R848, 20 hrs incubation; read-out: HEK/hTLR7 IC50
T1 sequence (Q9NYK1 27-1049): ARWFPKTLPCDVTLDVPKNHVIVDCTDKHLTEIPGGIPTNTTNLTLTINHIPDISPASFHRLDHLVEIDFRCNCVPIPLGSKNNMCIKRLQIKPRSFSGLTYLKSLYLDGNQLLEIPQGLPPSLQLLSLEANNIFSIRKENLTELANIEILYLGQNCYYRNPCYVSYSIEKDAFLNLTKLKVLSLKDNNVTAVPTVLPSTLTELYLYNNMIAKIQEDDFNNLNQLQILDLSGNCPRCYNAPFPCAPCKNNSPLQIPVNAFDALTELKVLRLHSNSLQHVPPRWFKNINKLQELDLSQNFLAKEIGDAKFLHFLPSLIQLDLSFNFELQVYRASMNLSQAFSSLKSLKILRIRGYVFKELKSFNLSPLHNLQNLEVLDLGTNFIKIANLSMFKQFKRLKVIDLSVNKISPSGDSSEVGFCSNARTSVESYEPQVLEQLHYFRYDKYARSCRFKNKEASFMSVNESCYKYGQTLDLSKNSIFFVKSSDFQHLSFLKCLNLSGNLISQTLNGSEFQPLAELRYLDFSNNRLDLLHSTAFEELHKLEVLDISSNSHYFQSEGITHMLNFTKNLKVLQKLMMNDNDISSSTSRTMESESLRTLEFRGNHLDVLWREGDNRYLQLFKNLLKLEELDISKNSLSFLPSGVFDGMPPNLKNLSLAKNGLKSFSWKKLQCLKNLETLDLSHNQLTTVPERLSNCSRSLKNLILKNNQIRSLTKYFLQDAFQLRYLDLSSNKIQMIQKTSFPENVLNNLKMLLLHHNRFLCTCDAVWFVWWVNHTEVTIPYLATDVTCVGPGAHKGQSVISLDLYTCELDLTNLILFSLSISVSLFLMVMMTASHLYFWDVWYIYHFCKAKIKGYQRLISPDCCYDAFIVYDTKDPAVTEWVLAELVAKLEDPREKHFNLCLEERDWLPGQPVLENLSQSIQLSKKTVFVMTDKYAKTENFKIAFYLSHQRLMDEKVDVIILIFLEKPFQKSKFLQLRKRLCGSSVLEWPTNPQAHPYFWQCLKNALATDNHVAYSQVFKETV
Procedure: The following tests were carried out in order to determine the activity of the compounds of formula (I), (Ia) or (Ib) in HEK293-Blue-hTLR-7/8/9 cells assay.
HEK293-Blue-hTLR-7 Cells Assay:
A stable HEK293-Blue-hTLR-7 cell line was purchased from InvivoGen (Cat.#: hkb-htlr7, San Diego, Calif., USA). These cells were originally designed for studying the stimulation of human TLR7 by monitoring the activation of NF-κB. A SEAP (secreted embryonic alkaline phosphatase) reporter gene was placed under the control of the IFN-β minimal promoter fused to five NF-κB and AP-1-binding sites. The SEAP was induced by activating NF-κB and AP-1 via stimulating HEK-Blue hTLR7 cells with TLR7 ligands. Therefore the reporter expression was declined by TLR7 antagonist under the stimulation of a ligand, such as R848 (Resiquimod), for incubation of 20 hrs. The cell culture supernatant SEAP reporter activity was determined using QUANTI-Blue™ kit (Cat.#: rep-qb1, Invivogen, San Diego, Ca, USA) at a wavelength of 640 nm, a detection medium that turns purple or blue in the presence of alkaline phosphatase.
HEK293-Blue-hTLR7 cells were incubated at a density of 250,000˜450,000 cells/mL in a volume of 170 μL in a 96-well plate in Dulbecco's Modified Eagle's medium (DMEM) containing 4.5 g/L glucose, 50 U/mL penicillin, […], […], 2 mM L-glutamine, 10% (v/v) heat-inactivated fetal bovine serum with addition of 20 μL test compound in a serial dilution in the presence of final DMSO at 1% and 10 μL of 20 uM R848 in above DMEM, perform incubation under 37° C. in a CO2 incubator for 20 hrs. Then 20 μL of the supernatant from each well was incubated with 180 μL Quanti-blue substrate solution at 37° C. for 2 hrs and the absorbance was read at 620-655 nm using a spectrophotometer. The signaling pathway that TLR7 activation leads to downstream NF-κB activation has been widely accepted, and therefore similar reporter assay was modified for evaluating TLR7 antagonist.

[1] = Human microsomal stability assay; type: in vitro ADME; conditions: human liver microsomes, 1 μM test compound, 0.5 mg/mL protein, 37° C.; low <7.0, medium 7.0-16.2, high 16.2-23.2 mL/min/kg
Procedure: Human Microsomal Stability Assay
Human liver microsomes (Cat.NO.: 452117, Corning, USA) were preincubated with test compound for 10 minutes at 37° C. in 100 mM potassium phosphate buffer, pH 7.4. The reactions were initiated by adding NADPH regenerating system. The final incubation mixtures contained 1 μM test compound, 0.5 mg/mL liver microsomal protein, 1 mM MgCl2, 1 mM NADP, 1 unit/mL isocitric dehydrogenase and 6 mM isocitric acid in 100 mM potassium phosphate buffer, pH 7.4. After incubation times of 0, 3, 6, 9, 15 and 30 minutes at 37° C., 300 μL of cold ACN (including internal standard) was added to 100 μL incubation mixture to terminate the reaction. Following precipitation and centrifugation, 100 uL supernatant will be taken out and added 300 uL water. The amount of compound remaining in the samples was determined by LC-MS/MS. Controls of no NADPH regenerating system at zero and 30 minutes were also prepared and analyzed. The results were categorized as: low (<7.0 mL/min/kg), medium (7.0-16.2 mL/min/kg) and high (16.2-23.2 mL/min/kg).

IC50 (human TLR7) | CL(h) [1] | Structure (SMILES)
10.3 nM | – | C[C@@H]1CN(c2ccc(C#N)c3ncccc23)C[C@@H]2Cc3cc(N4C[C@@H]5CNCCN5C4=O)ccc3CN21 (single isomer, unassigned) [Example 17A]
10.3 nM | – | C[C@@H]1CN(c2ccc(C#N)c3ncccc23)C[C@@H]2Cc3cc(N4C[C@H]5CNCCN5C4=O)ccc3CN21 (single isomer, unassigned) [Example 17B]
21.8 nM | 9.3 mL/min/kg | C[C@@H]1CN(c2ccc(C#N)c3ncccc23)C[C@@H]2Cc3cc(N4CC5NCCOC5C4)ccc3CN21 (stereo in doubt) [Example 10, 5-[(4R,11aS)-9-[(4aS,7aS)-3,4,4a,5,7,7a-hexahydro-2H-pyrrolo[3,4-b][1,4]oxazin-6-yl]-4-methyl-1,3,4,6,11,11a-hexahydropyrazino[1,2-b]isoquinolin-2-yl]quinoline-8-carbonitrile]
71.6 nM | – | C[C@@H]1CN(c2ccc(C#N)c3ncccc23)C[C@@H]2Cc3ccc(N4CCOCC(N)C4)cc3CN21 (stereo partly drawn) [Example 1, 5-[(4R,11aS)-8-(6-amino-1,4-oxazepan-4-yl)-4-methyl-1,3,4,6,11,11a-hexahydropyrazino[1,2-b]isoquinolin-2-yl]quinoline-8-carbonitrile]
53.1 nM | – | C[C@@H]1CN(c2ccc(C#N)c3ncccc23)C[C@@H]2Cc3ccc(NCCN4CC[C@H](O)C4)cc3CN21 [Example 2, 5-[(4R,11aS)-8-[2-[(3S)-3-hydroxypyrrolidin-1-yl]ethylamino]-4-methyl-1,3,4,6,11,11a-hexahydropyrazino[1,2-b]isoquinolin-2-yl]quinoline-8-carbonitrile]
38.2 nM | – | C[C@@H]1CN(c2ccc(C#N)c3ncccc23)C[C@@H]2Cc3ccc(OCCN(C)C)cc3CN21 [Example 5, 5-[(4R,11aS)-8-[2-(dimethylamino)ethoxy]-4-methyl-1,3,4,6,11,11a-hexahydropyrazino[1,2-b]isoquinolin-2-yl]quinoline-8-carbonitrile]
24.7 nM | 6.8 mL/min/kg | C[C@@H]1CN(c2ccc(C#N)c3ncccc23)C[C@@H]2Cc3cc(N[C@@H]4CNC[C@@H]4F)ccc3CN21 [Example 6, 5-[(4R,11aS)-4-methyl-9-[[(3R,4S)-4-fluoropyrrolidin-3-yl]amino]-1,3,4,6,11,11a-hexahydropyrazino[1,2-b]isoquinolin-2-yl]quinoline-8-carbonitrile]
27.4 nM | – | CO[C@H]1CNC[C@H]1Nc1ccc2c(c1)C[C@H]1CN(c3ccc(C#N)c4ncccc34)C[C@@H](C)N1C2 [Example 7, 5-[(4R,11aS)-9-[[(3R,4S)-4-methoxypyrrolidin-3-yl]amino]-4-methyl-1,3,4,6,11,11a-hexahydropyrazino[1,2-b]isoquinolin-2-yl]quinoline-8-carbonitrile]
35.5 nM | 9.6 mL/min/kg | C[C@@H]1CN(c2ccc(C#N)c3ncccc23)C[C@@H]2Cc3cc(N4C[C@@H](F)[C@@H](N)C4)ccc3CN21 [Example 8, 5-[(4R,11aS)-9-[(3S,4R)-3-amino-4-fluoro-pyrrolidin-1-yl]-4-methyl-1,3,4,6,11,11a-hexahydropyrazino[1,2-b]isoquinolin-2-yl]quinoline-8-carbonitrile]
19.5 nM | 8.8 mL/min/kg | CO[C@H]1CN(c2ccc3c(c2)C[C@H]2CN(c4ccc(C#N)c5ncccc45)C[C@@H](C)N2C3)C[C@H]1N [Example 9, 5-[(4R,11aS)-9-[(3R,4S)-3-amino-4-methoxy-pyrrolidin-1-yl]-4-methyl-1,3,4,6,11,11a-hexahydropyrazino[1,2-b]isoquinolin-2-yl]quinoline-8-carbonitrile]
5.8 nM | – | C[C@@H]1CN(c2ccc(C#N)c3ncccc23)C[C@@H]2Cc3cc(OCCN(C)C)ccc3CN21 [Example 11, 5-[(4R,11aS)-9-[2-(dimethylamino)ethoxy]-4-methyl-1,3,4,6,11,11a-hexahydropyrazino[1,2-b]isoquinolin-2-yl]quinoline-8-carbonitrile]
18.2 nM | – | C[C@@H]1CN(c2ccc(C#N)c3ncccc23)C[C@@H]2Cc3cc(OC[C@@H]4CCN4)ccc3CN21 [Example 12, 5-[(4R,11aS)-9-[[(2S)-azetidin-2-yl]methoxy]-4-methyl-1,3,4,6,11,11a-hexahydropyrazino[1,2-b]isoquinolin-2-yl]quinoline-8-carbonitrile]
18.6 nM | 7.6 mL/min/kg | C[C@@H]1CN(c2ccc(C#N)c3ncccc23)C[C@@H]2Cc3cc(N4CCN(C(=O)C(C)(C)N)CC4)ccc3CN21 [Example 13, 5-[(4R,11aS)-9-[4-(2-amino-2-methyl-propanoyl)piperazin-1-yl]-4-methyl-1,3,4,6,11,11a-hexahydropyrazino[1,2-b]isoquinolin-2-yl]quinoline-8-carbonitrile]
2.4 nM | – | C[C@@H]1CN(c2ccc(C#N)c3ncccc23)C[C@@H]2Cc3cc(N4C[C@@H]5C[C@H]4CN5C(=O)C(C)(C)N)ccc3CN21 [Example 15, 5-[(4R,11aS)-9-[(1S,4S)-5-(2-amino-2-methyl-propanoyl)-2,5-diazabicyclo[2.2.1]heptan-2-yl]-4-methyl-1,3,4,6,11,11a-hexahydropyrazino[1,2-b]isoquinolin-2-yl]quinoline-8-carbonitrile]
71.6 nM | – | C[C@@H]1CN(c2ccc(C#N)c3ncccc23)C[C@@H]2Cc3cc(N4CC5CCNCC5C4=O)ccc3CN21 (stereo partly drawn) [Example 18, 5-[(4R,11aS)-4-methyl-9-(3-oxo-3a,4,5,6,7,7a-hexahydro-1H-pyrrolo[3,4-c]pyridin-2-yl)-1,3,4,6,11,11a-hexahydropyrazino[1,2-b]isoquinolin-2-yl]quinoline-8-carbonitrile]
53.1 nM | – | C[C@@H]1CN(c2ccc(C#N)c3ncccc23)C[C@@H]2Cc3cc(N4CC5CNCCC5C4=O)ccc3CN21 (stereo partly drawn) [Example 19, 5-[(4R,11aS)-4-methyl-9-(1-oxo-3a,4,5,6,7,7a-hexahydro-3H-pyrrolo[3,4-c]pyridin-2-yl)-1,3,4,6,11,11a-hexahydropyrazino[1,2-b]isoquinolin-2-yl]quinoline-8-carbonitrile]
